According to patent US20020016346A1, “Method for enhancing outflow of aqueous humor in treatment of glaucoma” (The Regents University of California, a California …, priority 1994, published 2002):
Read-outs that look alike come from different tables or passages of the source.

Experiments:
[1] = tested on: Na+—K+—2Cl− cotransporter
Method: Thus, studies were conducted to determine the magnitude of net K uptake mediated by the TM cell Na^+—K^+—2Cl^− cotransporter. For determination of the net potassium uptake, the potassium contents of TM cells were evaluated by atomic absorption spectrophotometry, as described previously by O'Donnell, M. E. (supra, 1993). Briefly, cells were preincubated in 10 μM bumetanide for 5 minutes, and assayed as described above, with the exception that no ^86Rb was present during the assay. Cell ionic contents were extracted with 5% trichloroacetic acid following removal of extracellular potassium by washing the monolayers with ice-cold 0.1 M MgCl2.

eye of a rabbit = assay: Intra-ocular pressure in rabbits after subconjunctival injection; type: in vivo
Method: Male albino New Zealand rabbits weighing≧2 Kg were used for in vivo experiments performed under various active animal use protocols approved by the Institutional Animal Care and Use Committee at UC Davis. Animals were sedated with an intravenous dose of Napentabarbitol, 1-2 mg/Kg to permit their handling and frequent measurement of intra-ocular pressure (IOP). Topical anesthesia consisting of Proparacaine HCl (Alcaine™) was used for IOP measurements. A pneumatonometer (Mentor O & O Classic Model 30 Penumatonometer™, Norwell, Mass.) calibrated to a known (25 mmHg) pressure prior to each experiment was used for all IOP measurements. This model of Pneumatonometer provides a readout of standard deviation of each measurement; only measurements with a standard deviation of≦1 mmHg were accepted and most were less than 0.5 mmHg. Following sedation, IOP measurements were carried out over at least 30 minutes to assure that a stable baseline IOP was present.
Drugs and/or vehicle was administered to one eye of each animal via subconjunctival injection in order to bypass any barriers to drug penetration, such as an intact corneal and conjunctival epithelium and to achieve rapid and high concentrations of drug, bypassing epithelial barriers. The contralateral eye treated only with vehicle served as a control for each animal. Two syringes were prepared for each experiment, one containing drug and vehicle, the other containing only vehicle. […] Injections raised a prominent bleb, confirming subconjunctival placement of the drug or vehicle. This bleb then smoothed out over about ten minutes, indicating diffusion of the drug or vehicle throughout the subconjunctival space.
Measurements of intra-ocular pressure were taken at various intervals following the subconjunctival administration of the drug and/or vehicle. IOP in both eyes fluctuated over time reflecting the level of anesthesia. During the course of the experiment, the animal handlers and investigators were masked as to which eve had received the drug or control injection.

bovine TM cells = assay: TM cell volume by electronic cell sizing (Coulter Counter); type: cell-based
Method: By the second method, TM cells were trypsinized briefly in Ca-free medium, then rinsed with medium containing trypsin inhibitor and suspended in Hepes MEM. Mean cell volumes were then analyzed by electronic cell sizing on a Coulter Counter™ […] (Model ZM), with channelizer (C256), using at least 50,000 cells per data point and an orifice diameter of 140 μm. Aliquots of suspended cells were diluted into Hepes MEM containing the tonicity and/or agents to be evaluated. Mean cell volumes of each suspension aliquot were followed over time, starting at 1 minute after addition of cells to the assay media. Cell suspensions were maintained at 37° C. throughout the assay period. Absolute volumes (picoliters/cell) were calculated from distribution curves of cell diameter, using a standard curve generated by polystyrene latex beads of known diameter.
In order to determine whether the Na—K—Cl cotransporter of TM cells may play a role in restoration of intracellular volume following hypertonicity-induced cell shrinkage, we evaluated the effect of hypertonicity on TM cell volume and Na^+—K^+—2Cl^− cotransport activity. […] The intracellular volume of the cells then increased over a slower time course, with volume recovering to approximately 84% by 33 minutes as shown in FIG. 3A.

TM cell monolayers = assay: Flux of 14C-sucrose across confluent TM cell monolayers on filters; type: cell-based; conditions: 15 minute assay period
Method: To investigate the possibility that alteration of TM intracellular volume results in modulation of trabecular meshwork barrier permeability, we evaluated the flux of ^14C-sucrose across confluent TM cell monolayers grown on permeable filters. Cells were grown to confluence on collagen-coated dual level tissue culture filter inserts placed in covered multiwell cluster plates, as shown schematically in […], wherein lower chamber 2 is formed by suspension of membrane 4 with cells attached into holder 6, which is covered by cover 8. Upper chamber 10 is formed by the space within the holder above the membrane. Growth media (EMEM) volumes of 0.5 and 1.5 ml were used for upper and lower chambers, respectively, as previously described (Kajimura, et al., FASEB J, 8:A1045, 1994) for evaluation of endothelial cell monolayers and for evaluation of water permeability of TM cell monolayers (Perkins, et al., Invest. Ophthalmol. Vis. Sci., 29:1836-1846, 1988). One insert was placed in each of 12 wells in a cluster plate. Permeability was assessed as the flux of ^14C-sucrose across the TM cell monolayers. […] Sucrose content of the samples was determined by […] methods. The amount of solute was calculated from the radioactivity present in the sample and the specific activity (cpm/μmol) of the ^14C-sucrose.

SMILES: CCCCNc1cc(C(=O)O)cc(S(N)(=O)=O)c1Oc1ccccc1 [bumetanide]
- bumetanide-sensitive net K uptake ([1]; Cl omitted from the incubation medium, n=8): −2.62±2.82 μmol K/gm protein/min
- bumetanide-sensitive net K uptake ([1]; Na omitted from the incubation medium, n=8): 1.71±2.49 μmol K/gm protein/min
- bumetanide-sensitive net K uptake ([1]; steady state, 10 μM bumetanide): 7.78=1.98 μmol K/gm protein/min
- average IOP lowering effect (eye of a rabbit; average of two experiments, FIG. 6): over 20%
- effect on IOP (eye of a rabbit; bumetanide 10^−5 M in DMSO, 0.1 cc subconjunctival, first animal): rapid and pronounced and lasted beyond two hours
- intracellular volume (bovine TM cells; 30 minute exposure, bumetanide 10 μM, ethacrynic acid 1 mM, versus Hepes MEM control): significant reduction
- volume recovery after hypertonicity-induced cell shrinkage (bovine TM cells; hypertonic (400 mOsm) medium containing bumetanide): greatly attenuated
- monolayer permeability to sucrose (TM cell monolayers): increased
